How the values were obtained:
Type in all cases: in vivo
[1] = tested on: Ipomoea hederacea (IPOHE); experiment: Pre-emergence herbicidal glasshouse test, IPOHE; conditions: 125 g/h, evaluated after 13 days, five-point scale
Description: (§1) Seeds of a variety of test species are sown in standard soil in pots (Lolium perenne (LOLPE), Amaranthus retoflexus (AMARE), Abutilon theophrasti (ABUTH), Setaria faberi (SETFA), Echinochloa crus-galli (ECHCG), Ipomoea hederacea (IPOHE)). After cultivation for one day (pre-emergence) or after 8 days cultivation (post-emergence) under controlled conditions in a glasshouse (at 24/16° C., day/night; 14 hours light; 65% humidity), the plants are sprayed with an aqueous spray solution derived from the formulation of the technical active ingredient in acetone/water (50:50) solution containing 0.5% Tween 20 (polyoxyethelyene sorbitan monolaurate, CAS RN 9005-64-5). Compounds are applied at 125 g/h unless otherwise indicated. The test plants are then grown in a glasshouse under controlled conditions in a glasshouse (at 24/16° C., day/night; 14 hours light; 65% humidity) and watered twice daily. After 13 days for pre and post-emergence, the test is evaluated for the percentage damage caused to the plant. The biological activities are shown in the following table on a five-point scale (5=80-100%; 4=60-79%; 3=40-59%; 2=20-39%; 1=0-19%). “—” denotes not tested on this species or data not captured.

[2] = tested on: Setaria faberi (SETFA); experiment: Pre-emergence herbicidal glasshouse test, SETFA; conditions: 125 g/h, evaluated after 13 days, five-point scale
Description: as §1

[3] = tested on: Setaria faberi (SETFA); experiment: Post-emergence herbicidal glasshouse test, SETFA; conditions: 125 g/h, evaluated after 13 days, five-point scale
Description: as §1

[4] = tested on: Amaranthus retoflexus (AMARE); experiment: Post-emergence herbicidal glasshouse test, AMARE; set-up: dose or concentration left out as unconfirmed; conditions: evaluated after 13 days, five-point scale
Description: as §1

[5] = tested on: Echinochloa crus-galli (ECHCG); experiment: Pre-emergence herbicidal glasshouse test, ECHCG; conditions: 125 g/h, evaluated after 13 days, five-point scale
Description: as §1

[6] = tested on: Ipomoea hederacea (IPOHE); experiment: Post-emergence herbicidal glasshouse test, IPOHE; conditions: 125 g/h, evaluated after 13 days, five-point scale
Description: as §1

[7] = tested on: Echinochloa crus-galli (ECHCG); experiment: Post-emergence herbicidal glasshouse test, ECHCG; conditions: 125 g/h, evaluated after 13 days, five-point scale
Description: as §1

[8] = tested on: Amaranthus retoflexus (AMARE); experiment: Pre-emergence herbicidal glasshouse test, AMARE; conditions: 125 g/h, evaluated after 13 days, five-point scale
Description: as §1

COC(=O)N(C)c1c(OC(F)F)ccc(C(=O)Nc2nnnn2C)c1Cl [Compound 1.042]
4 (4=60-79%): percentage damage caused to the plant, PRE Application IPOHE [1]
5 (5=80-100%): percentage damage caused to the plant, PRE Application SETFA [2] | percentage damage caused to the plant, POST Application SETFA [3] | percentage damage caused to the plant, POST Application AMARE [4] | percentage damage caused to the plant, PRE Application ECHCG [5] | percentage damage caused to the plant, POST Application IPOHE [6] | percentage damage caused to the plant, POST Application ECHCG [7] | percentage damage caused to the plant, PRE Application AMARE [8]

CCCOC(=O)Nc1c(OC(F)(F)F)ccc(C(=O)Nc2nnnn2C)c1Cl [Compound 1.014]
5 (5=80-100%): percentage damage caused to the plant, POST Application SETFA [3] | percentage damage caused to the plant, POST Application ECHCG [7]
4 (4=60-79%): percentage damage caused to the plant, PRE Application SETFA [2] | percentage damage caused to the plant, POST Application AMARE [4] | percentage damage caused to the plant, PRE Application ECHCG [5] | percentage damage caused to the plant, POST Application IPOHE [6]
3 (3=40-59%): percentage damage caused to the plant, PRE Application AMARE [8]
2 (2=20-39%): percentage damage caused to the plant, PRE Application IPOHE [1]

Cn1nnnc1NC(=O)c1ccc(OC(F)F)c(NC(=O)OCCC#N)c1Cl [Compound 1.024]
3 (3=40-59%): percentage damage caused to the plant, PRE Application SETFA [2]
5 (5=80-100%): percentage damage caused to the plant, PRE Application IPOHE [1] | percentage damage caused to the plant, POST Application SETFA [3] | percentage damage caused to the plant, POST Application AMARE [4] | percentage damage caused to the plant, POST Application ECHCG [7] | percentage damage caused to the plant, PRE Application AMARE [8]
4 (4=60-79%): percentage damage caused to the plant, PRE Application ECHCG [5] | percentage damage caused to the plant, POST Application IPOHE [6]

CCN(C(=O)OC)c1c(OC(F)F)ccc(C(=O)Nc2nnnn2C)c1Cl [Compound 1.043]
4 (4=60-79%): percentage damage caused to the plant, POST Application IPOHE [6]
5 (5=80-100%): percentage damage caused to the plant, PRE Application SETFA [2] | percentage damage caused to the plant, POST Application SETFA [3] | percentage damage caused to the plant, POST Application AMARE [4] | percentage damage caused to the plant, PRE Application ECHCG [5] | percentage damage caused to the plant, POST Application ECHCG [7] | percentage damage caused to the plant, PRE Application AMARE [8]
3 (3=40-59%): percentage damage caused to the plant, PRE Application IPOHE [1]

Cn1nnnc1NC(=O)c1ccc(OC(F)(F)F)c(NC(=O)OC2CCOCC2)c1Cl [Compound 1.020]
5 (5=80-100%): percentage damage caused to the plant, PRE Application IPOHE [1] | percentage damage caused to the plant, PRE Application SETFA [2] | percentage damage caused to the plant, POST Application SETFA [3] | percentage damage caused to the plant, POST Application AMARE [4] | percentage damage caused to the plant, PRE Application ECHCG [5] | percentage damage caused to the plant, POST Application IPOHE [6] | percentage damage caused to the plant, POST Application ECHCG [7] | percentage damage caused to the plant, PRE Application AMARE [8]

CC(=O)N1CCC(OC(=O)Nc2c(OC(F)F)ccc(C(=O)Nc3nnnn3C)c2Cl)CC1 [Compound 1.023]
1 (1=0-19%): percentage damage caused to the plant, PRE Application SETFA [2] | percentage damage caused to the plant, PRE Application ECHCG [5] | percentage damage caused to the plant, POST Application IPOHE [6]
3 (3=40-59%): percentage damage caused to the plant, POST Application ECHCG [7] | percentage damage caused to the plant, PRE Application AMARE [8]
2 (2=20-39%): percentage damage caused to the plant, PRE Application IPOHE [1] | percentage damage caused to the plant, POST Application SETFA [3]
4 (4=60-79%): percentage damage caused to the plant, POST Application AMARE [4]

CCOC(=O)Nc1c(OC(F)(F)F)ccc(C(=O)Nc2nnnn2C)c1C [Compound 1.036]
5 (5=80-100%): percentage damage caused to the plant, PRE Application IPOHE [1] | percentage damage caused to the plant, PRE Application SETFA [2] | percentage damage caused to the plant, POST Application SETFA [3] | percentage damage caused to the plant, POST Application AMARE [4] | percentage damage caused to the plant, PRE Application ECHCG [5] | percentage damage caused to the plant, POST Application IPOHE [6] | percentage damage caused to the plant, POST Application ECHCG [7] | percentage damage caused to the plant, PRE Application AMARE [8]

CC(C)OC(=O)Nc1c(OC(F)F)ccc(C(=O)Nc2nnnn2C)c1Cl [Compound 1.017]
5 (5=80-100%): percentage damage caused to the plant, PRE Application SETFA [2] | percentage damage caused to the plant, POST Application SETFA [3] | percentage damage caused to the plant, POST Application AMARE [4] | percentage damage caused to the plant, PRE Application ECHCG [5] | percentage damage caused to the plant, POST Application IPOHE [6] | percentage damage caused to the plant, POST Application ECHCG [7] | percentage damage caused to the plant, PRE Application AMARE [8]
4 (4=60-79%): percentage damage caused to the plant, PRE Application IPOHE [1]

Cn1nnnc1NC(=O)c1ccc(OC(F)F)c(NC(=O)OC2CCOCC2)c1Cl [Compound 1.027]
4 (4=60-79%): percentage damage caused to the plant, PRE Application IPOHE [1] | percentage damage caused to the plant, PRE Application ECHCG [5] | percentage damage caused to the plant, PRE Application AMARE [8]
5 (5=80-100%): percentage damage caused to the plant, PRE Application SETFA [2] | percentage damage caused to the plant, POST Application SETFA [3] | percentage damage caused to the plant, POST Application AMARE [4] | percentage damage caused to the plant, POST Application IPOHE [6] | percentage damage caused to the plant, POST Application ECHCG [7]

COC(=O)Nc1c(OC(F)(F)F)ccc(C(=O)Nc2nnnn2C)c1C [Compound 1.035]
5 (5=80-100%): percentage damage caused to the plant, PRE Application SETFA [2] | percentage damage caused to the plant, POST Application SETFA [3] | percentage damage caused to the plant, POST Application AMARE [4] | percentage damage caused to the plant, PRE Application ECHCG [5] | percentage damage caused to the plant, POST Application ECHCG [7] | percentage damage caused to the plant, PRE Application AMARE [8]
3 (3=40-59%): percentage damage caused to the plant, PRE Application IPOHE [1] | percentage damage caused to the plant, POST Application IPOHE [6]

Cn1nnnc1NC(=O)c1ccc(OC(F)F)c(NC(=O)OCC(F)F)c1Cl [Compound 1.015]
5 (5=80-100%): percentage damage caused to the plant, PRE Application SETFA [2] | percentage damage caused to the plant, POST Application SETFA [3] | percentage damage caused to the plant, POST Application AMARE [4] | percentage damage caused to the plant, PRE Application ECHCG [5] | percentage damage caused to the plant, POST Application ECHCG [7] | percentage damage caused to the plant, PRE Application AMARE [8]
4 (4=60-79%): percentage damage caused to the plant, POST Application IPOHE [6]
3 (3=40-59%): percentage damage caused to the plant, PRE Application IPOHE [1]

Cn1nnnc1NC(=O)c1ccc(OC(F)(F)F)c(NC(=O)OCCC#N)c1Cl [Compound 1.012]
5 (5=80-100%): percentage damage caused to the plant, PRE Application SETFA [2] | percentage damage caused to the plant, POST Application SETFA [3] | percentage damage caused to the plant, POST Application AMARE [4] | percentage damage caused to the plant, PRE Application ECHCG [5] | percentage damage caused to the plant, POST Application IPOHE [6] | percentage damage caused to the plant, POST Application ECHCG [7] | percentage damage caused to the plant, PRE Application AMARE [8]
4 (4=60-79%): percentage damage caused to the plant, PRE Application IPOHE [1]

COCCCOC(=O)Nc1c(OC(F)F)ccc(C(=O)Nc2nnnn2C)c1Cl [Compound 1.022]
4 (4=60-79%): percentage damage caused to the plant, PRE Application IPOHE [1] | percentage damage caused to the plant, PRE Application SETFA [2] | percentage damage caused to the plant, PRE Application ECHCG [5] | percentage damage caused to the plant, POST Application IPOHE [6]
5 (5=80-100%): percentage damage caused to the plant, POST Application SETFA [3] | percentage damage caused to the plant, POST Application AMARE [4] | percentage damage caused to the plant, POST Application ECHCG [7] | percentage damage caused to the plant, PRE Application AMARE [8]

Source: US12637437B2, “Herbicidal compounds” (SYNGENTA CROP PROTECTION AG, priority 2021, dated 2026)
